Measurements taken from patent US4818770A, “Prevention of a plant disease by specific inhibition of fungal polyamine biosynthesis” (priority 1986, dated 1989).

System: U. phaseoli
Test: Bean rust severity after DFMO and polyamines alone or combined
Format: in vivo, Uromyces phaseoli
Conditions: for Lesions per cm^2 / Lesions per leaf / Lesions per leaf, percent of control: postinoculation

Row | SMILES | reduction of number of lesions (1 mM Put alone) | Lesions per cm^2 (polyamine alone 0.01 mM) | Lesions per leaf (polyamine alone 0.01 mM) | Lesions per leaf, percent of control (polyamine alone 0.01 mM) | Lesions per cm^2 (polyamine alone 0.1 mM) | Lesions per leaf (polyamine alone 0.1 mM) | Lesions per leaf, percent of control (polyamine alone 0.1 mM) | Lesions per cm^2 (polyamine alone 1.0 mM) | Lesions per leaf (polyamine alone 1.0 mM) | Lesions per leaf, percent of control (polyamine alone 1.0 mM)
1 | NCCCCN [Put, putrescine] | about one-third | 57 ± 2 per cm^2 | 4013 ± 264 per leaf | 98% of control | 54 ± 5 per cm^2 | 3189 ± 478 per leaf | 78% of control | 44 ± 9 per cm^2 | 2698 ± 260 per leaf | 66% of control
2 | NCCCCNCCCN [Spd, spermidine] |  | 56 ± 5 per cm^2 | 3209 ± 360 per leaf | 78% of control | 58 ± 6 per cm^2 | 3416 ± 457 per leaf | 83% of control | 50 ± 10 per cm^2 | 3926 ± 358 per leaf | 96% of control
